Reference: ChEMBL document CHEMBL1201862, “PubChem BioAssay data set” (2004)
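Exposure lasted 48 hours, with cells grown in 96-well plates and compounds tested at five concentrations. Here, GI50 denotes the concentration required for 50% inhibition of growth.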 Active and inactive are the calls of the source. No stated cut-off is given here; in the data, active = GI50 up to about 1.1 µM and inactive = higher.

Assays:
Experiment in all cases: NCI anticancer screen, dose series, 48 h
SNB-75 = tested on: SNB-75
SNB-19 = tested on: SNB-19
SF-268 = tested on: SF-268
LOX IMVI = tested on: LOX IMVI
M14 = tested on: M14
HL-60 = tested on: HL-60
K562 = tested on: K562
COLO 205 = tested on: COLO 205
UACC-62 = tested on: UACC-62
A549 = tested on: A549
A498 = tested on: A498
SF-295 = tested on: SF-295
786-0 = tested on: 786-0
TK-10 = tested on: TK-10
SK-MEL-5 = tested on: SK-MEL-5
CAKI-1 = tested on: CAKI-1
U-251 = tested on: U-251
OVCAR-8 = tested on: OVCAR-8
KM12 = tested on: KM12

Row | Structure (SMILES) | GI50 (SNB-75) | GI50 (SNB-19) | GI50 (SF-268) | GI50 (LOX IMVI) | GI50 (M14) | GI50 (HL-60) | GI50 (K562) | GI50 (COLO 205) | GI50 (UACC-62) | GI50 (A549) | GI50 (A498) | GI50 (SF-295) | GI50 (786-0) | GI50 (TK-10) | GI50 (SK-MEL-5) | GI50 (CAKI-1) | GI50 (U-251) | GI50 (OVCAR-8) | GI50 (KM12)
1 | O=C(CSSCC(=O)Nc1ccc(Br)cc1)Nc1ccc(Br)cc1 | 20.7 µM (inactive) | 15.3 µM (inactive) | 13.7 µM (inactive) | 10.8 µM (inactive) | 17.7 µM (inactive) | 16.9 µM (inactive) | 21.2 µM (inactive) | 28.5 µM (inactive) | 15.9 µM (inactive) | 16.8 µM (inactive) | 19.6 µM (inactive) | 14.7 µM (inactive) | 17.6 µM (inactive) | 16.7 µM (inactive) | 24 µM (inactive) | 24.2 µM (inactive) | 14.4 µM (inactive) | 17.3 µM (inactive) | 19.1 µM (inactive)
2 | Cc1ccc(Nc2nc(NNC(=O)Cc3ccccc3)nc(NNC(=O)c3ccncc3)n2)cc1 | > 10 µM (inactive) |  | > 10 µM (inactive) | > 10 µM (inactive) | > 10 µM (inactive) | > 10 µM (inactive) | > 10 µM (inactive) | > 10 µM (inactive) | 9.82 µM (inactive) | > 10 µM (inactive) | > 10 µM (inactive) |  | > 10 µM (inactive) | > 10 µM (inactive) | > 10 µM (inactive) | > 10 µM (inactive) | > 10 µM (inactive) | > 10 µM (inactive) | > 10 µM (inactive)
3 | C=C1CC(OC)(C(O)C(=O)N[C@H]2OCO[C@H]3C2O[C@H](C[C@H](O)COC)C(C)(C)C3OC)O[C@H](C)[C@@H]1C (some centres undefined) | < 0.00773 µM (active) | < 0.00773 µM (active) | < 0.00773 µM (active) | < 0.00773 µM (active) |  | < 0.00773 µM (active) | < 0.00773 µM (active) | < 0.00773 µM (active) | < 0.00773 µM (active) | < 0.00773 µM (active) | < 0.00773 µM (active) | < 0.00773 µM (active) |  |  | < 0.00773 µM (active) | < 0.00773 µM (active) | < 0.00773 µM (active) | < 0.00773 µM (active) | < 0.00773 µM (active)
4 | O=C(O)CCc1cccc2c1oc1c(CCC(=O)O)cccc12 | > 100 µM (inactive) | > 100 µM (inactive) | > 100 µM (inactive) | > 100 µM (inactive) | > 100 µM (inactive) | > 100 µM (inactive) | > 100 µM (inactive) | > 100 µM (inactive) | > 100 µM (inactive) | > 100 µM (inactive) | > 100 µM (inactive) | > 100 µM (inactive) | > 100 µM (inactive) | > 100 µM (inactive) | > 100 µM (inactive) | > 100 µM (inactive) | > 100 µM (inactive) | > 100 µM (inactive) | > 100 µM (inactive)
5 | CC(=O)c1ccc(NC(=O)C(=O)C(C#N)CC(C)(C)C=O)cc1 (centres undefined) |  | > 100 µM (inactive) | > 100 µM (inactive) | > 100 µM (inactive) | > 100 µM (inactive) | > 100 µM (inactive) | > 100 µM (inactive) | > 100 µM (inactive) | > 100 µM (inactive) | > 100 µM (inactive) | > 100 µM (inactive) | > 100 µM (inactive) | > 100 µM (inactive) | > 100 µM (inactive) | > 100 µM (inactive) | > 100 µM (inactive) | > 100 µM (inactive) | > 100 µM (inactive) | > 100 µM (inactive)
6 | COc1cc2c(cc1OC)C(Cl)C(c1ccc(Cl)cc1)=C2Cl (centres undefined) | 19.1 µM (inactive) | 27.2 µM (inactive) | > 10 µM (inactive) | 12.1 µM (inactive) | 15.4 µM (inactive) | 11.4 µM (inactive) | 7.66 µM (inactive) | 16.8 µM (inactive) | 12.5 µM (inactive) |  | 18.6 µM (inactive) | 14.5 µM (inactive) |  | 19.6 µM (inactive) | 14.4 µM (inactive) | 17.3 µM (inactive) | 13.7 µM (inactive) | 19.3 µM (inactive) | 
7 | CC(=O)Nc1ccc(C(=O)NN2C(=O)C(Cl)C2c2cc(Br)cc(Br)c2O)cc1 (centres undefined) | 37.3 µM (inactive) | > 100 µM (inactive) | > 100 µM (inactive) | > 100 µM (inactive) | > 100 µM (inactive) | > 100 µM (inactive) | > 100 µM (inactive) | > 100 µM (inactive) | > 100 µM (inactive) | > 100 µM (inactive) | > 100 µM (inactive) |  | > 100 µM (inactive) |  | > 100 µM (inactive) | > 100 µM (inactive) | > 100 µM (inactive) | > 100 µM (inactive) | > 100 µM (inactive)
8 | O=P1(Oc2ccc(Cl)cc2Cl)Oc2cc3ccccc3cc2O1 | 70.8 µM (inactive) | > 100 µM (inactive) | > 100 µM (inactive) | 68.9 µM (inactive) |  | 21.5 µM (inactive) | 46.2 µM (inactive) | 97.9 µM (inactive) | 43.7 µM (inactive) | 66.2 µM (inactive) | 29.1 µM (inactive) | 59.3 µM (inactive) |  |  | 59 µM (inactive) | > 71.8 µM (inactive) | 81.7 µM (inactive) | 69 µM (inactive) | 43.8 µM (inactive)
9 | CN(C)c1ccc(/C=C/C(=O)O)cc1 | > 100 µM (inactive) | > 100 µM (inactive) | > 100 µM (inactive) | > 100 µM (inactive) | > 100 µM (inactive) | > 100 µM (inactive) | > 100 µM (inactive) | > 100 µM (inactive) | > 100 µM (inactive) | > 100 µM (inactive) | > 100 µM (inactive) | > 100 µM (inactive) |  |  | > 100 µM (inactive) | > 100 µM (inactive) |  | > 100 µM (inactive) | > 100 µM (inactive)
10 | O=C1N/C(=N/N=C/C(O)C(O)C(O)CO)N/C1=C\c1ccco1 (centres undefined) | > 100 µM (inactive) | 0.0354 µM (active) | > 100 µM (inactive) | > 100 µM (inactive) | > 100 µM (inactive) | > 100 µM (inactive) | > 100 µM (inactive) | > 100 µM (inactive) | > 100 µM (inactive) | 64.6 µM (inactive) | > 100 µM (inactive) | > 100 µM (inactive) | > 100 µM (inactive) | > 100 µM (inactive) | > 100 µM (inactive) | > 100 µM (inactive) | > 100 µM (inactive) | > 100 µM (inactive) | > 100 µM (inactive)
11 | N#CC(OC1OC(COC2OC(CO)C(O)C(O)C2O)C(O)C(O)C1O)c1ccccc1 (centres undefined) | > 225 µM (inactive) | > 225 µM (inactive) | > 225 µM (inactive) | > 225 µM (inactive) |  | > 225 µM (inactive) | > 225 µM (inactive) | > 225 µM (inactive) | > 225 µM (inactive) | > 225 µM (inactive) | > 225 µM (inactive) | > 225 µM (inactive) |  |  | > 225 µM (inactive) | > 225 µM (inactive) | > 225 µM (inactive) | > 225 µM (inactive) | > 225 µM (inactive)
